From PubChem BioAssay (NCI)
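Protocol summary: plate cells (96-well), add compound at 5 concentrations, incubate 48 h, interpolate endpoints linearly. TGI: total growth inhibition.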

Assays:
Assay in all cases: NCI anticancer screen, dose series, 48 h
[1] = test system: SK-OV-3 ovarian
[2] = test system: IGROV1 ovarian
[3] = test system: NCI-H23 lung
[4] = test system: CCRF-CEM leukemia
[5] = test system: HCC-2998 colon
[6] = test system: HCT-15 colon
[7] = test system: MDA-MB-231 breast
[8] = test system: UO-31 renal
[9] = test system: SF-295 CNS
[10] = test system: ACHN renal
[11] = test system: KM12 colon
[12] = test system: U251 CNS
[13] = test system: TK-10 renal
[14] = test system: 786-0 renal
[15] = test system: HT29 colon
[16] = test system: SK-MEL-28 melanoma
[17] = test system: K-562 leukemia
[18] = test system: SNB-19 CNS
[19] = test system: A549 NSCLC
[20] = test system: MDA-MB-435
[21] = test system: RPMI-8226 leukemia
[22] = test system: SN12C renal
[23] = test system: OVCAR-8 ovarian
[24] = test system: MOLT-4 leukemia
[25] = test system: SR leukemia
[26] = test system: OVCAR-3 ovarian
[27] = test system: RXF 393 renal
[28] = test system: SK-MEL-2 melanoma
[29] = test system: OVCAR-4 ovarian
[30] = test system: M14 melanoma
[31] = test system: UACC-257 melanoma
[32] = test system: EKVX NSCLC
[33] = test system: MCF7 breast
[34] = test system: HOP-62 NSCLC
[35] = test system: DU-145 prostate
[36] = test system: MDA-N
[37] = test system: BT-549 breast
[38] = test system: SF-268 CNS
[39] = test system: PC-3 prostate
[40] = test system: NCI-H460 lung
[41] = test system: CAKI-1 renal
[42] = test system: A498 renal
[43] = test system: SK-MEL-5 melanoma
[44] = test system: COLO 205 colon
[45] = test system: HCT-116 colon
[46] = test system: NCI/ADR-RES ovarian
[47] = test system: SNB-75 CNS
[48] = test system: HOP-92 NSCLC
[49] = test system: UACC-62 melanoma
[50] = test system: SW-620 colon
[51] = test system: LOX IMVI melanoma
[52] = test system: T-47D breast
[53] = test system: HS 578T breast
[54] = test system: NCI-H522 lung
[55] = test system: OVCAR-5 ovarian
[56] = test system: HL-60(TB) leukemia
[57] = test system: NCI-H226 lung
[58] = test system: SF-539 CNS

Question: With COc1ccc2c3c1OC1c4[nH]c5ccccc5c4CC4(O)C(C2)N(C)CCC314 (stereo not drawn) as the molecule, how does the TGI [1] read?
Answer: Its TGI is over 100 µM.

Question: What about the TGI [2] of the same molecule?
Answer: The TGI was over 100 µM.

Question: What about the TGI [3] of the same molecule?
Answer: The TGI was over 100 µM.

Question: What about the TGI [4] of the same molecule?
Answer: The TGI was 52.8 µM.

Question: And the TGI [5]?
Answer: The TGI was 31 µM.

Question: What about the TGI [6] of the same molecule?
Answer: The TGI was over 100 µM.

Question: And the TGI [7]?
Answer: Its TGI is 77.4 µM.

Question: What about the TGI [8] of the same molecule?
Answer: Its TGI is 28.1 µM.

Question: What about the TGI [9] of the same molecule?
Answer: The TGI was over 100 µM.

Question: And the TGI [10]?
Answer: The TGI was 75.6 µM.

Question: And the TGI [11]?
Answer: Its TGI is over 100 µM.

Question: What about the TGI [12] of the same molecule?
Answer: Its TGI is 44.8 µM.

Question: And the TGI [13]?
Answer: Its TGI is 50.2 µM.

Question: And the TGI [14]?
Answer: The TGI was 34.3 µM.

Question: And the TGI [15]?
Answer: The TGI was 49.3 µM.

Question: What about the TGI [16] of the same molecule?
Answer: Its TGI is 34.5 µM.

Question: And the TGI [17]?
Answer: The TGI was 37.2 µM.

Question: And the TGI [18]?
Answer: Its TGI is over 100 µM.

Question: And the TGI [19]?
Answer: Its TGI is over 100 µM.

Question: What about the TGI [20] of the same molecule?
Answer: Its TGI is 35.7 µM.

Question: What about the TGI [21] of the same molecule?
Answer: The TGI was 45.9 µM.

Question: What about the TGI [22] of the same molecule?
Answer: Its TGI is over 100 µM.

Question: And the TGI [23]?
Answer: The TGI was over 100 µM.

Question: What about the TGI [24] of the same molecule?
Answer: Its TGI is 54.1 µM.

Question: What about the TGI [25] of the same molecule?
Answer: Its TGI is 37 µM.

Question: What about the TGI [26] of the same molecule?
Answer: The TGI was over 100 µM.

Question: And the TGI [27]?
Answer: Its TGI is 50.8 µM.

Question: What about the TGI [28] of the same molecule?
Answer: The TGI was 39.5 µM.

Question: What about the TGI [29] of the same molecule?
Answer: The TGI was over 100 µM.

Question: What about the TGI [30] of the same molecule?
Answer: The TGI was 32.3 µM.

Question: And the TGI [31]?
Answer: The TGI was 34.1 µM.

Question: What about the TGI [32] of the same molecule?
Answer: Its TGI is over 100 µM.

Question: What about the TGI [33] of the same molecule?
Answer: Its TGI is 60.4 µM.

Question: What about the TGI [34] of the same molecule?
Answer: The TGI was over 100 µM.

Question: And the TGI [35]?
Answer: The TGI was over 100 µM.

Question: What about the TGI [36] of the same molecule?
Answer: The TGI was 32.7 µM.

Question: And the TGI [37]?
Answer: Its TGI is over 100 µM.

Question: What about the TGI [38] of the same molecule?
Answer: The TGI was over 100 µM.

Question: And the TGI [39]?
Answer: The TGI was over 100 µM.

Question: What about the TGI [40] of the same molecule?
Answer: The TGI was 50.3 µM.

Question: What about the TGI [41] of the same molecule?
Answer: Its TGI is over 100 µM.

Question: What about the TGI [42] of the same molecule?
Answer: Its TGI is 31.6 µM.

Question: What about the TGI [43] of the same molecule?
Answer: Its TGI is 29.5 µM.

Question: What about the TGI [44] of the same molecule?
Answer: The TGI was 37.7 µM.

Question: What about the TGI [45] of the same molecule?
Answer: Its TGI is over 100 µM.

Question: And the TGI [46]?
Answer: The TGI was over 100 µM.

Question: And the TGI [47]?
Answer: The TGI was over 100 µM.

Question: What about the TGI [48] of the same molecule?
Answer: The TGI was 48.7 µM.

Question: And the TGI [49]?
Answer: The TGI was 57.3 µM.

Question: What about the TGI [50] of the same molecule?
Answer: Its TGI is over 100 µM.

Question: What about the TGI [51] of the same molecule?
Answer: The TGI was 52 µM.

Question: And the TGI [52]?
Answer: Its TGI is 43.6 µM.

Question: What about the TGI [53] of the same molecule?
Answer: The TGI was 67.7 µM.

Question: And the TGI [54]?
Answer: Its TGI is 81.4 µM.

Question: And the TGI [55]?
Answer: Its TGI is over 100 µM.

Question: For CC[C@@H](/C=C\CCC1(C[C@H](O)CCC=C(C)C)OCCO1)O[Si](C(C)C)(C(C)C)C(C)C, which TGI [1] is on record?
Answer: Its TGI is 41.8 µM.

Question: And the TGI [2]?
Answer: Its TGI is 42.1 µM.

Question: And the TGI [3]?
Answer: The TGI was 61.8 µM.

Question: And the TGI [4]?
Answer: The TGI was over 100 µM.

Question: What about the TGI [5] of the same molecule?
Answer: The TGI was 31.9 µM.

Question: What about the TGI [6] of the same molecule?
Answer: Its TGI is 42.8 µM.

Question: And the TGI [7]?
Answer: The TGI was 31.2 µM.

Question: And the TGI [8]?
Answer: Its TGI is 34.3 µM.

Question: What about the TGI [9] of the same molecule?
Answer: The TGI was 43.1 µM.

Question: And the TGI [10]?
Answer: The TGI was 33.6 µM.

Question: What about the TGI [11] of the same molecule?
Answer: The TGI was over 100 µM.

Question: What about the TGI [12] of the same molecule?
Answer: The TGI was 31.1 µM.

Question: What about the TGI [13] of the same molecule?
Answer: The TGI was 39.3 µM.

Question: What about the TGI [14] of the same molecule?
Answer: The TGI was 31.4 µM.

Question: And the TGI [15]?
Answer: The TGI was 65.9 µM.

Question: And the TGI [16]?
Answer: Its TGI is 73.4 µM.

Question: What about the TGI [17] of the same molecule?
Answer: The TGI was 60 µM.

Question: And the TGI [18]?
Answer: The TGI was 33.8 µM.

Question: What about the TGI [19] of the same molecule?
Answer: Its TGI is over 100 µM.

Question: What about the TGI [20] of the same molecule?
Answer: Its TGI is over 100 µM.

Question: What about the TGI [21] of the same molecule?
Answer: The TGI was 42.7 µM.

Question: What about the TGI [22] of the same molecule?
Answer: Its TGI is 32.8 µM.

Question: And the TGI [23]?
Answer: Its TGI is 38 µM.

Question: What about the TGI [24] of the same molecule?
Answer: Its TGI is 45.4 µM.

Question: What about the TGI [25] of the same molecule?
Answer: Its TGI is 51.3 µM.

Question: What about the TGI [26] of the same molecule?
Answer: The TGI was 37.1 µM.

Question: And the TGI [27]?
Answer: Its TGI is 33.8 µM.

Question: What about the TGI [56] of the same molecule?
Answer: The TGI was 38.4 µM.

Question: What about the TGI [28] of the same molecule?
Answer: Its TGI is 30.7 µM.

Question: And the TGI [29]?
Answer: The TGI was over 100 µM.

Question: And the TGI [30]?
Answer: Its TGI is 72.7 µM.

Question: And the TGI [31]?
Answer: The TGI was 65.2 µM.

Question: And the TGI [32]?
Answer: The TGI was 60.2 µM.

Question: What about the TGI [33] of the same molecule?
Answer: The TGI was 32 µM.

Question: And the TGI [34]?
Answer: The TGI was over 100 µM.

Question: And the TGI [35]?
Answer: The TGI was over 100 µM.

Question: And the TGI [36]?
Answer: Its TGI is over 100 µM.

Question: What about the TGI [37] of the same molecule?
Answer: Its TGI is 63.6 µM.

Question: What about the TGI [38] of the same molecule?
Answer: The TGI was 41.9 µM.

Question: What about the TGI [39] of the same molecule?
Answer: Its TGI is over 100 µM.

Question: What about the TGI [40] of the same molecule?
Answer: The TGI was 53.3 µM.

Question: And the TGI [41]?
Answer: Its TGI is 87.1 µM.

Question: What about the TGI [42] of the same molecule?
Answer: The TGI was 81.3 µM.

Question: What about the TGI [43] of the same molecule?
Answer: Its TGI is 37.5 µM.

Question: And the TGI [57]?
Answer: The TGI was 35.9 µM.

Question: What about the TGI [44] of the same molecule?
Answer: The TGI was 40.1 µM.

Question: And the TGI [45]?
Answer: Its TGI is 38.6 µM.

Question: And the TGI [46]?
Answer: Its TGI is 53.9 µM.

Question: And the TGI [47]?
Answer: The TGI was 64.9 µM.

Question: What about the TGI [48] of the same molecule?
Answer: Its TGI is 66.8 µM.

Question: What about the TGI [49] of the same molecule?
Answer: The TGI was 64.5 µM.

Question: And the TGI [50]?
Answer: The TGI was 73.9 µM.

Question: And the TGI [58]?
Answer: The TGI was 34.8 µM.

Question: And the TGI [51]?
Answer: The TGI was 38.8 µM.

Question: What about the TGI [52] of the same molecule?
Answer: Its TGI is 42.6 µM.

Question: And the TGI [53]?
Answer: The TGI was 80.5 µM.

Question: And the TGI [54]?
Answer: The TGI was 39.2 µM.

Question: What about the TGI [55] of the same molecule?
Answer: The TGI was 38.5 µM.
